System: MV-4-11 cells
Test: Gene expression microarray analysis (Affymetrix PrimeView) and GSEA
Assay type: cell-based, human
Set-up: RFU PODN (11730768_x_at) / Fold change /veh PODN (11730768_x_at) / RFU LINC00158 (11744669_a_at) / Fold change /veh LINC00158 (11744669_a_at) / RFU DUSP10 (11751237_a_at) / Fold change /veh DUSP10 (11751237_a_at) / RFU ID3 (11757404_x_at) / Fold change /veh ID3 (11757404_x_at) / RFU PLEKHG5 (11737974_s_at) / Fold change /veh PLEKHG5 (11737974_s_at) / RFU LRRC4B (11730491_at) / Fold change /veh LRRC4B (11730491_at) / RFU GIMAP4 (11747438_a_at) / Fold change /veh GIMAP4 (11747438_a_at) / RFU KRT8 (11758183_x_at) / Fold change /veh KRT8 (11758183_x_at) / RFU CNN1 (11734310_a_at) / Fold change /veh CNN1 (11734310_a_at) / RFU VPS37D (11726825_at) / Fold change /veh VPS37D (11726825_at) / RFU C10orf10 (11716522_x_at) / Fold change /veh C10orf10 (11716522_x_at) / RFU KIR2DL2 /// KIR2DL4 /// KIR2DL5A /// KIR2DL5B /// KIR2DS1 /// KIR2DS2 /// KIR2DS3 /// KIR2DS4 /// KIR3DL3 /// KIR3DL3 /// KIR3DS1 (11738374_at) / Fold change /veh KIR2DL2 /// KIR2DL4 /// KIR2DL5A /// KIR2DL5B /// KIR2DS1 /// KIR2DS2 /// KIR2DS3 /// KIR2DS4 /// KIR3DL3 /// KIR3DL3 /// KIR3DS1 (11738374_at) / RFU C1QL1 (11718748_at) / Fold change /veh C1QL1 (11718748_at) / RFU TMPRSS4 (11747572_a_at) / Fold change /veh TMPRSS4 (11747572_a_at) / RFU HAMP (11756126_x_at) / Fold change /veh HAMP (11756126_x_at) / RFU RNFT2 (11725882_a_at) / Fold change /veh RNFT2 (11725882_a_at) / RFU NR4A2 (11747474_a_at) / Fold change /veh NR4A2 (11747474_a_at) / RFU ABCC12 (11746883_a_at) / Fold change /veh ABCC12 (11746883_a_at) / RFU TMEM136 (11760407_x_at) / Fold change /veh TMEM136 (11760407_x_at) / RFU CLDN22 /// WWC2 (11732394_at) / Fold change /veh CLDN22 /// WWC2 (11732394_at) / RFU HLA-DPB1 (11760878_x_at) / Fold change /veh HLA-DPB1 (11760878_x_at) / RFU SPINT1 (11716480_a_at) / Fold change /veh SPINT1 (11716480_a_at) / RFU GAP43 (11754022_s_at) / Fold change /veh GAP43 (11754022_s_at) / RFU A4GNT (11735810_at) / Fold change /veh A4GNT (11735810_at) / RFU PRB3 (11715151_x_at) / Fold change /veh PRB3 (11715151_x_at) / RFU TUBB4B (11761932_at) / Fold change /veh TUBB4B (11761932_at) / RFU CAPN14 (11732068_a_at) / Fold change /veh CAPN14 (11732068_a_at) / RFU TMCC2 (11721928_a_at) / Fold change /veh TMCC2 (11721928_a_at) / RFU IRGQ (11745062_a_at) / Fold change /veh IRGQ (11745062_a_at) / RFU FAM174B (11720279_a_at) / Fold change /veh FAM174B (11720279_a_at) / RFU TMPRSS4 (11748680_a_at) / Fold change /veh TMPRSS4 (11748680_a_at) / RFU FAM212B (11763350_a_at) / Fold change /veh FAM212B (11763350_a_at) / RFU PLEKHG5 (11743358_a_at) / Fold change /veh PLEKHG5 (11743358_a_at) / RFU ZSCAN30 (11745921_a_at) / Fold change /veh ZSCAN30 (11745921_a_at) / RFU CMKLR1 (11741424_a_at) / Fold change /veh CMKLR1 (11741424_a_at) / RFU LOC101060620 /// MAPK8IP1 (11723275_at) / Fold change /veh LOC101060620 /// MAPK8IP1 (11723275_at) / RFU SPTSSB (11747773_x_at) / Fold change /veh SPTSSB (11747773_x_at) / RFU PRSS12 (11739890_at) / Fold change /veh PRSS12 (11739890_at) / RFU BIN1 (11741810_x_at) / Fold change /veh BIN1 (11741810_x_at) / RFU WNT11 (11732464_a_at) / Fold change /veh WNT11 (11732464_a_at) / RFU C10orf10 (11716521_a_at) / Fold change /veh C10orf10 (11716521_a_at) / RFU C5orf56 (11738089_at) / Fold change /veh C5orf56 (11738089_at) / RFU CYB561 (11721691_x_at) / Fold change /veh CYB561 (11721691_x_at) / RFU ANKRD19P (11752326_a_at) / Fold change /veh ANKRD19P (11752326_a_at) / RFU OR2T12 /// OR2T33 /// OR2T8 (11738714_s_at) / Fold change /veh OR2T12 /// OR2T33 /// OR2T8 (11738714_s_at) / RFU VCAN (11748164_a_at) / Fold change /veh VCAN (11748164_a_at) / RFU JSRP1 (11732532_at) / Fold change /veh JSRP1 (11732532_at) / RFU KRTAP10-11 (11738290_x_at) / Fold change /veh KRTAP10-11 (11738290_x_at) / RFU MYO3A (11730013_a_at) / Fold change /veh MYO3A (11730013_a_at) / RFU EBF3 (11725865_a_at) / Fold change /veh EBF3 (11725865_a_at) / RFU CAMK2N1 (11719241_x_at) / Fold change /veh CAMK2N1 (11719241_x_at) / RFU C5orf56 (11738088_a_at) / Fold change /veh C5orf56 (11738088_a_at) / RFU OLFML3 (11715873_a_at) / Fold change /veh OLFML3 (11715873_a_at) / RFU LOC100653217 /// NTM (11731650_a_at) / Fold change /veh LOC100653217 /// NTM (11731650_a_at) / RFU MAPK11 (11762145_a_at) / Fold change /veh MAPK11 (11762145_a_at) / RFU FIZ1 (11724087_x_at) / Fold change /veh FIZ1 (11724087_x_at) / RFU OASL (11726364_x_at) / Fold change /veh OASL (11726364_x_at) / RFU SOX15 (11748057_x_at) / Fold change /veh SOX15 (11748057_x_at) / RFU CD79A (11719716_a_at) / Fold change /veh CD79A (11719716_a_at) / RFU HIST1H1D (11736915_at) / Fold change /veh HIST1H1D (11736915_at) / RFU CASKIN2 (11723855_a_at) / Fold change /veh CASKIN2 (11723855_a_at) / RFU LOC730098 (11760151_x_at) / Fold change /veh LOC730098 (11760151_x_at) / RFU OR4N2 (11742367_at) / Fold change /veh OR4N2 (11742367_at) / RFU PRRT2 (11749266_a_at) / Fold change /veh PRRT2 (11749266_a_at) / RFU SNX32 (11753110_a_at) / Fold change /veh SNX32 (11753110_a_at) / RFU CDHR5 (11726645_a_at) / Fold change /veh CDHR5 (11726645_a_at) / RFU RCAN1 (11760418_a_at) / Fold change /veh RCAN1 (11760418_a_at) / RFU FAM167A (11723789_a_at) / Fold change /veh FAM167A (11723789_a_at) / RFU FAM26E (11764081_at) / Fold change /veh FAM26E (11764081_at) / RFU ISYNA1 (11749810_s_at) / Fold change /veh ISYNA1 (11749810_s_at) / RFU ACY1 (11761880_at) / Fold change /veh ACY1 (11761880_at) / RFU 11764098_at / Fold change /veh 11764098_at / RFU SAMD14 (11745864_x_at) / Fold change /veh SAMD14 (11745864_x_at) / RFU NPB (11741838_a_at) / Fold change /veh NPB (11741838_a_at) / RFU TMPRSS6 (11731388_a_at) / Fold change /veh TMPRSS6 (11731388_a_at) / RFU KRTAP10-2 (11738614_at) / Fold change /veh KRTAP10-2 (11738614_at) / RFU ARHGAP8 /// PRR5-ARHGAP8 (11727945_x_at) / Fold change /veh ARHGAP8 /// PRR5-ARHGAP8 (11727945_x_at) / RFU KRTAP5-7 /// NADSYN1 (11734609_at) / Fold change /veh KRTAP5-7 /// NADSYN1 (11734609_at) / RFU RASL12 (11751679_a_at) / Fold change /veh RASL12 (11751679_a_at) / RFU CDKN2B (11736163_a_at) / Fold change /veh CDKN2B (11736163_a_at) / RFU PRF1 (11729649_at) / Fold change /veh PRF1 (11729649_at) / RFU, ZNF638 /// ZNF638-IT1 / Fold change vs veh, ZNF638 /// ZNF638-IT1 / RFU, PANK3 / Fold change vs veh, PANK3 / RFU, SH3YL1 / Fold change vs veh, SH3YL1 / RFU, ZEB2 / Fold change vs veh, ZEB2 / RFU, NRIP1 / Fold change vs veh, NRIP1 / RFU, PTTG1IP / Fold change vs veh, PTTG1IP / RFU, CAPN2 / Fold change vs veh, CAPN2 / RFU, MED14 / Fold change vs veh, MED14 / RFU, SNORA58 / Fold change vs veh, SNORA58 / RFU, C1orf63 / Fold change vs veh, C1orf63 / RFU, LRRFIP1 / Fold change vs veh, LRRFIP1 / RFU, NDUFAF7 / Fold change vs veh, NDUFAF7 / RFU, SLC12A2 / Fold change vs veh, SLC12A2 / RFU, IBTK / Fold change vs veh, IBTK / RFU, ESF1 / Fold change vs veh, ESF1 / Fold change vs veh, TMEM50B / RFU, TAOK1 / Fold change vs veh, TAOK1 / RFU, ACBD3 / Fold change vs veh, ACBD3 / RFU, TMA16 / Fold change vs veh, TMA16 / RFU, RWDD3 / Fold change vs veh, RWDD3 / RFU, BCAT1 / Fold change vs veh, BCAT1 / RFU, EDEM3 / Fold change vs veh, EDEM3 / RFU, TMEM33 / Fold change vs veh, TMEM33 / RFU, WDR75 / Fold change vs veh, WDR75 / RFU, AHCTF1 / Fold change vs veh, AHCTF1 / RFU, TFRC / Fold change vs veh, TFRC / RFU, ZDHHC17 / Fold change vs veh, ZDHHC17 / RFU, NOM1 / Fold change vs veh, NOM1 / RFU, ARL8B / Fold change vs veh, ARL8B / RFU, ZBTB11 / Fold change vs veh, ZBTB11 / RFU, TAMM41 / Fold change vs veh, TAMM41 / RFU, KIAA1704 /// LOC100996395 / Fold change vs veh, KIAA1704 /// LOC100996395 / RFU, ING1 / Fold change vs veh, ING1 / RFU, TRMT61B / Fold change vs veh, TRMT61B / RFU, FUBP3 / Fold change vs veh, FUBP3 / RFU, TP53 / Fold change vs veh, TP53 / RFU, TNKS2 / Fold change vs veh, TNKS2 / RFU, ZFP14 / Fold change vs veh, ZFP14 / RFU, ACTR2 / Fold change vs veh, ACTR2 / RFU, PPP3R1 / Fold change vs veh, PPP3R1 / RFU, PIK3R1 / Fold change vs veh, PIK3R1 / RFU, HNRNPA1 / Fold change vs veh, HNRNPA1 / RFU, RNF170 / Fold change vs veh, RNF170 / RFU, ZNF28 / Fold change vs veh, ZNF28 / RFU, RNGTT / Fold change vs veh, RNGTT / RFU, OGT / Fold change vs veh, OGT / RFU, BRD1 / Fold change vs veh, BRD1 / RFU, MARS / Fold change vs veh, MARS / RFU, ZNF655 / Fold change vs veh, ZNF655 / RFU, FAHD1 / Fold change vs veh, FAHD1 / RFU, BDP1 / Fold change vs veh, BDP1 / RFU, LRRCC1 / Fold change vs veh, LRRCC1 / RFU, ARID1A / Fold change vs veh, ARID1A / RFU, ZNF146 / Fold change vs veh, ZNF146 / RFU, ZNF330 / Fold change vs veh, ZNF330 / RFU, GPN3 / Fold change vs veh, GPN3 / RFU, C9orf123 / Fold change vs veh, C9orf123 / RFU, N4BP2L2 / Fold change vs veh, N4BP2L2 / RFU, ARFIP1 / Fold change vs veh, ARFIP1 / RFU, FAM179B / Fold change vs veh, FAM179B / RFU, BCL10 / Fold change vs veh, BCL10 / RFU, UHRF1BP1L / Fold change vs veh, UHRF1BP1L / RFU, BET1 / Fold change vs veh, BET1 / RFU, CNOT2 / Fold change vs veh, CNOT2 / RFU, ZNF268 / Fold change vs veh, ZNF268 / Fold change vs veh, ZNF507 / RFU, DGCR2 / Fold change vs veh, DGCR2 / RFU, WDSUB1 / Fold change vs veh, WDSUB1 / Fold change vs veh, HSP90B1 /// MIR3652 / RFU, ADSS / Fold change vs veh, ADSS / RFU, GK / Fold change vs veh, GK / RFU, ZNF148 / Fold change vs veh, ZNF148 / RFU, TAF9 / Fold change vs veh, TAF9 / RFU, SLC1A5 / Fold change vs veh, SLC1A5 / RFU, SLMO2 / Fold change vs veh, SLMO2 / RFU, ABCC4 / Fold change vs veh, ABCC4 / RFU, LOC101060439 /// RAP1B / Fold change vs veh, LOC101060439 /// RAP1B / RFU, RFX7 / Fold change vs veh, RFX7 / RFU, GTPBP10 / Fold change vs veh, GTPBP10 / RFU, CNEP1R1 / Fold change vs veh, CNEP1R1 / RFU, BIVM-ERCC5 /// ERCC5 / Fold change vs veh, BIVM-ERCC5 /// ERCC5 / RFU, ILF3 / Fold change vs veh, ILF3 / RFU 11762660_at / Fold change /veh 11762660_at / RFU VCAN (11757783_s_at) / Fold change /veh VCAN (11757783_s_at) / RFU DDX43 (11728927_at) / Fold change /veh DDX43 (11728927_at) / RFU KRT8 (11758188_x_at) / Fold change /veh KRT8 (11758188_x_at) / RFU NKD1 (11759106_at) / Fold change /veh NKD1 (11759106_at) / RFU SRD5A1 (11742802_a_at) / Fold change /veh SRD5A1 (11742802_a_at) / RFU TPSAB1 /// TPSB2 (11721975_s_at) / Fold change /veh TPSAB1 /// TPSB2 (11721975_s_at) / RFU GSTM3 (11746129_a_at) / Fold change /veh GSTM3 (11746129_a_at) / RFU IL23R (11737362_x_at) / Fold change /veh IL23R (11737362_x_at) / RFU TMEM51 (11727254_a_at) / Fold change /veh TMEM51 (11727254_a_at) / RFU PIWIL2 (11732686_x_at) / Fold change /veh PIWIL2 (11732686_x_at) / RFU ORM1 (11744905_x_at) / Fold change /veh ORM1 (11744905_x_at) / RFU CCDC152 (11743942_at) / Fold change /veh CCDC152 (11743942_at) / RFU ECM1 (11717891_a_at) / Fold change /veh ECM1 (11717891_a_at) / RFU IL23R (11748794_a_at) / Fold change /veh IL23R (11748794_a_at) / RFU TNFAIP8L3 (11732012_x_at) / Fold change /veh TNFAIP8L3 (11732012_x_at) / RFU MBOAT4 (11741988_at) / Fold change /veh MBOAT4 (11741988_at) / RFU 11764193_at / Fold change /veh 11764193_at / RFU TMEM53 (11763286_at) / Fold change /veh TMEM53 (11763286_at) / RFU MAGEB2 (11727129_at) / Fold change /veh MAGEB2 (11727129_at) / RFU TMEM200A (11744735_a_at) / Fold change /veh TMEM200A (11744735_a_at) / RFU CCDC152 (11751479_a_at) / Fold change /veh CCDC152 (11751479_a_at) / RFU FAM211A (11726209_a_at) / Fold change /veh FAM211A (11726209_a_at) / RFU RGS16 (11746705_a_at) / Fold change /veh RGS16 (11746705_a_at) / RFU VCAN (11755009_s_at) / Fold change /veh VCAN (11755009_s_at) / RFU RHOB (11743442_s_at) / Fold change /veh RHOB (11743442_s_at) / RFU RGS16 (11720943_a_at) / Fold change /veh RGS16 (11720943_a_at) / RFU RGS16 (11720944_at) / Fold change /veh RGS16 (11720944_at) / RFU, VPS4B / Fold change vs veh, VPS4B / RFU, CREB1 / Fold change vs veh, CREB1 / RFU, DNAJC13 / Fold change vs veh, DNAJC13 / RFU, GNAQ / Fold change vs veh, GNAQ / RFU, CDK5R1 / Fold change vs veh, CDK5R1 / RFU, ZRANB3 / Fold change vs veh, ZRANB3 / RFU, CUL4A / Fold change vs veh, CUL4A / RFU, CCNY / Fold change vs veh, CCNY / RFU, UFL1 / Fold change vs veh, UFL1 / RFU, COG3 / Fold change vs veh, COG3 / RFU, DIAPH2 / Fold change vs veh, DIAPH2 / RFU, SKA2 / Fold change vs veh, SKA2 / RFU, AFF3 / Fold change vs veh, AFF3 / RFU, LMF1 / Fold change vs veh, LMF1 / RFU, IPO11 / Fold change vs veh, IPO11 / RFU, DFFB / Fold change vs veh, DFFB / RFU, FOXP1 / Fold change vs veh, FOXP1 / RFU, CARD8 / Fold change vs veh, CARD8 / RFU, STRN3 / Fold change vs veh, STRN3 / RFU, ADK / Fold change vs veh, ADK / RFU, RASSF2 / Fold change vs veh, RASSF2 / RFU, WIPF1 / Fold change vs veh, WIPF1 / RFU, LARP1B / Fold change vs veh, LARP1B / RFU, RASA1 / Fold change vs veh, RASA1 / RFU, RB1 / Fold change vs veh, RB1 / RFU, PPFIA1 / Fold change vs veh, PPFIA1 / RFU, MAT2A / Fold change vs veh, MAT2A / RFU, CCT5 / Fold change vs veh, CCT5 / RFU, WDR92 / Fold change vs veh, WDR92 / RFU, CUX1 / Fold change vs veh, CUX1 / RFU, TTC7A / Fold change vs veh, TTC7A / RFU, TMEM135 / Fold change vs veh, TMEM135 / RFU, DEPTOR / Fold change vs veh, DEPTOR / RFU, CPM / Fold change vs veh, CPM / RFU, DNAJB6 / Fold change vs veh, DNAJB6 / RFU, CACNA2D3 / Fold change vs veh, CACNA2D3 / RFU, DTX4 / Fold change vs veh, DTX4 / RFU, TFCP2 / Fold change vs veh, TFCP2 / RFU, GMCL1 /// GMCL1P1 / Fold change vs veh, GMCL1 /// GMCL1P1 / RFU, AEBP2 / Fold change vs veh, AEBP2 / RFU, SNHG1 /// SNORD22 /// SNORD25 /// SNORD26 /// SNORD27 /// SNORD28 /// SNORD29 /// SNORD31 / Fold change vs veh, SNHG1 /// SNORD22 /// SNORD25 /// SNORD26 /// SNORD27 /// SNORD28 /// SNORD29 /// SNORD31 / Fold change (Aza/veh), C12orf56 (ProbeSet 11735607_a_at) / Fold change (ACY-1035/veh), C12orf56 (ProbeSet 11735607_a_at) / Fold change (Aza/veh), FGFR1OP (ProbeSet 11751329_s_at) / Fold change (ACY-1035/veh), FGFR1OP (ProbeSet 11751329_s_at) / Fold change (Aza/veh), VPS36 (ProbeSet 11739960_a_at) / Fold change (ACY-1035/veh), VPS36 (ProbeSet 11739960_a_at) / RFU SYPL1 (11715823_x_at) / Fold change /veh SYPL1 (11715823_x_at) / RFU IGFBP7 (11715501_s_at) / Fold change /veh IGFBP7 (11715501_s_at) / RFU REEP3 (11722064_at) / Fold change /veh REEP3 (11722064_at) / RFU IGLL1 (11728026_x_at) / Fold change /veh IGLL1 (11728026_x_at): dose or concentration left out as unconfirmed
Details: ProbeSet 11721611_a_at; LIST D

Structure (SMILES): Nc1ncn([C@@H]2O[C@H](CO)[C@@H](O)[C@H]2O)c(=O)n1 [azacitidine]
- RFU, IPO11: 64.89 RFU

Source: PMC5218480 (PLoS ONE, 2017)
